Measured values taken from PubChem BioAssay (NCI).
“And” between values parts separate entries of the source, which are not always exact repeats. Equal entries are not always repeated.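 Cells were grown in 96-well plates and exposed to each compound for 48 hours at five concentrations; endpoints were interpolated linearly between bracketing concentrations, or set to the highest concentration if not reached. GI50: concentration for 50% inhibition of growth. TGI marks complete inhibition of growth.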

Assays:
Experiment in all cases: inhibition of tumour cell growth, NCI panel, 48 h
[1] = system: SR leukemia
[2] = system: SK-OV-3 ovarian
[3] = system: SF-268 CNS
[4] = system: LOX IMVI melanoma
[5] = system: NCI/ADR-RES ovarian
[6] = system: T-47D breast
[7] = system: HOP-62 NSCLC
[8] = system: DU-145 prostate
[9] = system: HOP-92 NSCLC
[10] = system: PC-3 prostate
[11] = system: RXF 393 renal
[12] = system: OVCAR-8 ovarian
[13] = system: SK-MEL-2 melanoma
[14] = system: OVCAR-3 ovarian
[15] = system: MALME-3M melanoma
[16] = system: A549 NSCLC
[17] = system: MDA-MB-231 breast
[18] = system: IGROV1 ovarian
[19] = system: K-562 leukemia
[20] = system: NCI-H460 lung
[21] = system: TK-10 renal
[22] = system: MCF7 breast
[23] = system: COLO 205 colon
[24] = system: NCI-H23 lung
[25] = system: OVCAR-4 ovarian
[26] = system: U251 CNS
[27] = system: MDA-MB-435
[28] = system: SF-295 CNS
[29] = system: HT29 colon
[30] = system: ACHN renal
[31] = system: CAKI-1 renal
[32] = system: SN12C renal
[33] = system: HCT-116 colon
[34] = system: HCC-2998 colon
[35] = system: HCT-15 colon
[36] = system: UACC-257 melanoma
[37] = system: SK-MEL-5 melanoma
[38] = system: KM12 colon
[39] = system: 786-0 renal
[40] = system: SNB-75 CNS
[41] = system: A498 renal
[42] = system: UO-31 renal
[43] = system: NCI-H226 lung
[44] = system: NCI-H522 lung
[45] = system: UACC-62 melanoma
[46] = system: SK-MEL-28 melanoma
[47] = system: HL-60(TB) leukemia
[48] = system: SNB-19 CNS
[49] = system: EKVX NSCLC
[50] = system: OVCAR-5 ovarian
[51] = system: MOLT-4 leukemia
[52] = system: M14 melanoma
[53] = system: RPMI-8226 leukemia
[54] = system: BT-549 breast
[55] = system: SW-620 colon
[56] = system: HS 578T breast
[57] = system: CCRF-CEM leukemia
[58] = system: SF-539 CNS

Cc1ccc(NC(=O)c2ccc(CN3CC[C@H](N(C)C)C3)c(C(F)(F)F)c2)cc1Nc1nccc(-c2cncnc2)n1
GI50 [1]: 2.79 µM and 1.99 µM
TGI [1]: > 24.4 µM and 5.04 µM
GI50 [2]: 16 µM and > 10 µM
TGI [2]: 32.1 µM and > 10 µM
GI50 [3]: 10.4 µM and > 10 µM
TGI [3]: 28.5 µM and > 10 µM
GI50 [4]: 0.936 µM and 0.952 µM
TGI [4]: 7.14 µM and > 10 µM
GI50 [5]: 12.5 µM and > 10 µM
TGI [5]: 45.1 µM and > 10 µM
GI50 [6]: 5.16 µM and > 10 µM
TGI [6]: 12.2 µM and > 10 µM
GI50 [7]: 9.83 µM and 9.62 µM
TGI [7]: 24.5 µM and > 10 µM
GI50 [8]: 12 µM and > 10 µM
TGI [8]: 29.6 µM and > 10 µM
GI50 [9]: 5.1 µM and 1.66 µM
TGI [9]: 22 µM and > 10 µM
GI50 [10]: 13.4 µM and > 10 µM
TGI [10]: 35 µM and > 10 µM
GI50 [11]: 11.9 µM and 9.4 µM
TGI [11]: 27 µM and > 10 µM
GI50 [12]: 13.8 µM and > 10 µM
TGI [12]: 36.1 µM and > 10 µM
GI50 [13]: 2.64 µM and 2.5 µM
TGI [13]: 13.3 µM and > 10 µM
GI50 [14]: 6.12 µM and 8.64 µM
TGI [14]: 20.5 µM and > 10 µM
GI50 [15]: 0.217 µM and 0.402 µM
GI50 [16]: 11.3 µM and > 10 µM
TGI [16]: 28.5 µM and > 10 µM
GI50 [17]: 1.42 µM and 1.98 µM
TGI [17]: 7.82 µM and > 10 µM
GI50 [18]: 7.21 µM and 5.14 µM
TGI [18]: 24.8 µM and > 10 µM
GI50 [19]: 0.00433 µM
TGI [19]: 5.6 µM and > 10 µM
GI50 [20]: 2.99 µM and 8.15 µM
TGI [20]: 9.95 µM and > 10 µM
GI50 [21]: 15 µM and > 10 µM
TGI [21]: 28.4 µM and > 10 µM
GI50 [22]: 6.63 µM and > 10 µM
TGI [22]: 24.6 µM and > 10 µM
GI50 [23]: 0.331 µM and 0.423 µM
TGI [23]: 6.65 µM and > 10 µM
GI50 [24]: 5.61 µM and 8.08 µM
TGI [24]: 26.5 µM and > 10 µM
GI50 [25]: 10.9 µM and > 10 µM
TGI [25]: 30.1 µM and > 10 µM
GI50 [26]: 6.28 µM and 6.5 µM
TGI [26]: 17.3 µM and > 10 µM
GI50 [27]: 1.73 µM and 3.1 µM
TGI [27]: 15.6 µM and > 10 µM
GI50 [28]: 4.85 µM and > 10 µM
TGI [28]: 12.5 µM and > 10 µM
GI50 [29]: 0.606 µM and 0.637 µM
TGI [29]: 15.7 µM and > 10 µM
GI50 [30]: 4.04 µM and 8.38 µM
TGI [30]: 14.8 µM and > 10 µM
GI50 [31]: 9.06 µM and > 10 µM
TGI [31]: 27.4 µM and > 10 µM
GI50 [32]: 14.2 µM and > 10 µM
TGI [32]: 34.4 µM and > 10 µM
GI50 [33]: 1.62 µM and 2.61 µM
TGI [33]: 9.9 µM and > 10 µM
GI50 [34]: 10.8 µM and > 10 µM
TGI [34]: 28 µM and > 10 µM
GI50 [35]: 4.47 µM and 5.13 µM
TGI [35]: 23.5 µM and > 10 µM
GI50 [36]: 1.44 µM and 1.14 µM
TGI [36]: 6.74 µM and 3.53 µM
GI50 [37]: 3.79 µM and 4.05 µM
TGI [37]: 9.07 µM and > 10 µM
GI50 [38]: 6.65 µM and > 10 µM
TGI [38]: 23.5 µM and > 10 µM
GI50 [39]: 6.11 µM and 6.67 µM
TGI [39]: 14.9 µM and > 10 µM
GI50 [40]: 10.3 µM and > 10 µM
TGI [40]: 22.8 µM and > 10 µM
GI50 [41]: 12.1 µM and > 10 µM
TGI [41]: 27.1 µM and > 10 µM
GI50 [42]: 6.69 µM and 5.17 µM
TGI [42]: 21.9 µM and > 10 µM
GI50 [43]: 15.2 µM and > 10 µM
TGI [43]: 36.6 µM and > 10 µM
GI50 [44]: 4.5 µM and > 10 µM
TGI [44]: 13.1 µM and > 10 µM
GI50 [45]: 1.05 µM and 0.387 µM
TGI [45]: 15.7 µM and > 10 µM
GI50 [46]: 0.798 µM and 0.635 µM
TGI [46]: 5.53 µM and > 10 µM
GI50 [47]: 5.85 µM and 0.758 µM
TGI [47]: 22.6 µM and > 10 µM
GI50 [48]: 10.9 µM and > 10 µM
TGI [48]: 31.7 µM and > 10 µM
GI50 [49]: 14.6 µM and > 10 µM
TGI [49]: 40 µM and > 10 µM
GI50 [50]: 5.5 µM and 6.04 µM
TGI [50]: 24.2 µM and > 10 µM
GI50 [51]: 5.23 µM and 3.69 µM
TGI [51]: 21.4 µM and > 10 µM
GI50 [52]: 0.425 µM and 0.668 µM
TGI [52]: 4.9 µM and > 10 µM
GI50 [53]: 5.08 µM and 4.4 µM
TGI [53]: 24 µM and > 10 µM
GI50 [54]: 5.96 µM and > 10 µM
TGI [54]: 13.3 µM and > 10 µM
GI50 [55]: 6.15 µM and > 10 µM
TGI [55]: 22.1 µM and > 10 µM
GI50 [56]: 7.62 µM and 2.23 µM
TGI [56]: 35.6 µM and > 10 µM
GI50 [57]: 7.23 µM and 4.55 µM
TGI [57]: 30.9 µM and > 10 µM
GI50 [58]: 4.5 µM and 6.26 µM
TGI [58]: 9.34 µM and > 10 µM
